{"source": "paper PMC11350758", "about": "“Development of Xanthoangelol-Derived Compounds with Membrane-Disrupting Effects against Gram-Positive Bacteria” (Antibiotics, 2024)", "key": {"[1]": {"system": "Enterococcus faecalis ATCC51299, vancomycin-resistant strain", "assay": "MIC, broth microdilution", "assay_type": "cell-based", "conditions": "Enterococcus faecalis ATCC51299, vancomycin-resistant; read-out: MIC E. f. 51299", "in_short": "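Broth microdilution per CLSI: 2-fold serial compound dilutions in TSB broth, mixed with an equal volume of bacterial suspension at 10^6 CFU/mL. Incubated 37 °C for 24 h; experiments repeated three times.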"}, "[2]": {"system": "S. aureus ATCC43300 biofilm formation", "protocol": "(§1) Bacterial biofilms created by the aggregation of bacteria is considered as one of the main reasons for the development of drug resistance. […] Subsequently, we further assessed the efficiency of 9h to eradicate the preformed biofilm. Matured S. aureus biofilm (grown for 24 h) was treated with compound 9h, and the rate of biofilm disruption was then assessed by the crystal violet staining assay.\nBiofilm inhibition assay: S. aureus ATCC43300 was cultured (37 °C, 200 rpm) in MHB broth for 5 h and diluted to 1 × 10^6 CFU/mL. […] The planktonic supernatant cells were discarded and washed with PBS three times. Then, methanol (150 µL) was added to each well for 30 min. After discarding methanol, 0.1% crystal violet solution (150 µL) was added, and biofilms were stained for 15 min. Next, crystal violet solution was removed and washed with PBS three times. Finally, ethanol (150 µL) was pipetted into the wells, and the OD values were measured at 575 nm. The biofilm inhibition (%) = (ODcompound − ODblank)/(ODpositive control − ODblank) × 100%."}, "[3]": {"system": "Gram-negative bacteria tested", "assay": "MIC, summary over the Gram-negative bacteria tested", "assay_type": "cell-based", "conditions": "read-out: MICs against the Gram-negative bacteria tested", "protocol": "All target derivatives were assessed for their in vitro antibacterial activities using a broth microdilution assay to test their minimum inhibitory concentrations (MICs) against six Gram-positive strains (S. aureus ATCC31007, S. aureus ATCC25923, S. aureus ATCC43300, E. faecalis ATCC29212, B. subtilis ATCC9372, and S. epidermidis ATCC12228) and four Gram-negative strains (A. baumannii ATCC19606, K. pneumonia ATCC10031, E. coli ATCC25922, and P. aeruginosa ATCC27853). These compounds were also evaluated for their hemolytic activities and membrane selectivity by determining their HC50 (the concentration required to lyse 50% of red blood cells) and SI (HC50/MICs) values, respectively, and vancomycin was used as the positive drug.\nMICs of the derivatives were determined by the micro broth dilution method according to the American Clinical and Laboratory Standards Institute (CLSI) standards. Briefly, 2-fold serial dilutions of target compounds were prepared in 96-well plates containing TSB broth. An equal volume of bacterial suspension (10^6 CFU/mL) was then pipetted into each well, and the mixture was incubated at 37 °C for 24 h. […] All biological experiments were repeated three times."}, "[4]": {"system": "S. aureus ATCC43300", "assay": "Cytoplasmic membrane depolarization assay, DiSC3(5)", "assay_type": "cell-based", "conditions": "16 μg/mL, at 20 min", "protocol": "To explore the antibacterial mechanism of compound 9h, a cytoplasmic membrane depolarization assay was performed against S. aureus ATCC43300 using 3,3′-dipropylthiadicarbocyanine iodide (DiSC3(5)) assay. In general, DiSC3(5) could penetrate the intact cell membranes and was quenched when accumulated inside the bacterial cells. Once the cell membrane was destroyed, DiSC3(5) was released from the cell membrane, leading to a significant increase in fluorescence intensity. […] Moreover, the fluorescence intensity in S. aureus increased in a dose-dependent manner with increasing concentrations of 9h.\nMid-log S. aureus ATCC43300 was collected and then washed with PBS three times. Bacterial suspension (1.0 × 10^8 CFU/mL, 150 μL) was added to a black 96-well plate, and then fluorescent dye DiSC3(5) (10 μM, 50 μL) was pipetted into each well of plates and preincubated in the dark for 30 min. After the incubation, the fluorescence intensity was measured every minute for 6 min using a microplate reader (SpectraMax i3x, Molecular Devices, Sunnyvale, CA, USA) (λex/λem = 622 nm/670 nm). […] All biological experiments were repeated three times."}, "[5]": {"system": "S. aureus ATCC43300", "assay": "Bactericidal time-kill assay", "assay_type": "cell-based", "conditions": "8× MIC, 16 μg/mL", "protocol": "Natural AMPs have rapid bactericidal properties, and in order to examine whether active compound 9h have similar rapid bactericidal properties, the time-kill kinetics of 9h were carried out to test the bactericidal action against S. aureus ATCC4330 at four different concentrations.\nS. aureus ATCC43300 was cultured at 37 °C for 6 h and diluted to 1×10^6 CFU/mL. […] At each time point, the bacterial suspension (20 μL) was diluted in PBS, and the number of bacterial colonies was measured. All biological experiments were repeated three times."}, "[6]": {"assay": "In vitro cytotoxicity evaluation", "assay_type": "cell-based", "conditions": "human, LO2 cells", "protocol": "A key component in the development of antimicrobial agents for clinical application is the assessment of their potential toxicity to mammalian cells. To assess the cytotoxic impact, compound 9h was chosen to undergo in vitro testing for its cytotoxic effects on LO2 cells."}, "[7]": {"system": "S. aureus ATCC43300", "assay": "ROS assay (DCFH-DA)", "assay_type": "cell-based", "conditions": "16 μg/mL", "protocol": "It is known that the disruption of bacterial cell membranes often causes the production of ROS in bacterial cells. The fluorescent probe DCFH-DA was used to monitor the level of intracellular ROS produced by S. aureus ATCC43300. DCFH-DA is initially non-fluorescent; however, it undergoes hydrolysis to DCFH upon entry into the cell. Subsequently, DCFH is converted to the fluorescent compound DCF when ROS are produced in the cells. […] The fluorescence intensity of 9h was about 8-fold higher than the PBS-treated group when the concentration of 9h increased 16 μg/mL.\nMid-log S. aureus ATCC43300 was collected and resuspended in PBS. Bacteria suspension (1.0 × 10^8 CFU/mL) was placed into a 96-well plate, and an equal volume of DCF-DA (10.0 μM) was mixed and incubated at 37 °C for 30 min. After incubation, the suspension was centrifuged (3500 rpm, 4 min), and the supernatant was removed and resuspended in PBS. […] The fluorescence intensity of each well was recorded by a microplate reader (Ex = 488 nm and Em = 530 nm). All biological experiments were repeated three times."}, "[8]": {"system": "preformed S. aureus ATCC43300 biofilm", "assay": "Biofilm disruption assay (crystal violet)", "assay_type": "cell-based", "conditions": "biofilm grown for 24 h", "protocol": "as §1\nBiofilm disruption: Briefly, S. aureus ATCC43300 (1 × 10^6 CFU/mL) was incubated in 96-well plates for 24 h to create biofilms. Next, the planktonic supernatant cells were removed. […] Then, the treated biofilm was determined by crystal violet assay. The OD values were measured at 575 nm. Biofilm disruption (%) = (ODcompound − ODblank)/(ODpositive control − ODblank) × 100%. All biological experiments were repeated three times."}}, "note": "Read-outs that look alike come from different tables or passages of the source."}
{"compound": "CC(=O)c1c(OCCCNCCCN2CCN(C)CC2)c2c(c3c1OC(C)(CCC=C(C)C)C=C3)OC(C)(CCC=C(C)C)C=C2", "note": "(stereo not shown) [Compound 9h, 1-(2,8-Dimethyl-2,8-bis(4-methylpent-3-en-1-yl)-5-(3-((3-(4-methylpiperazin-1-yl)propyl)amino)propoxy)-2H,8H-pyrano [2,3-f]chromen-6-yl)ethan-1-one]", "values": [{"measurement": "MIC", "setting": "[1]", "value": 8, "unit": "µg/mL"}, {"measurement": "inhibition of S. aureus biofilm formation", "setting": "[2]; 1× MIC (2 μg/mL)", "value": 8.65, "unit": "%"}, {"measurement": "inhibition of S. aureus biofilm formation", "setting": "[2]; 2× MIC", "value": 10.87, "unit": "%"}, {"measurement": "MIC", "setting": "[3]", "value": "4 to 16", "unit": "µg/mL"}, {"measurement": "increase of DiSC3(5) fluorescence intensity vs blank control", "setting": "[4]", "value": "about 5 fold"}, {"measurement": "time to complete bacterial killing", "setting": "[5]", "value": 4, "unit": "h"}, {"measurement": "killing of S. aureus", "setting": "[5]; within 1 h", "value": "≥ 99.9", "unit": "%"}, {"measurement": "colony-forming unit (CFU) reduction", "setting": "[5]; within 1 h, compared with the control", "value": 5.95, "unit": "log"}, {"measurement": "IC50", "setting": "[6]", "value": 55, "unit": "µg/mL"}, {"measurement": "viability at 2 μg/mL", "setting": "[6]; 2 μg/mL, read-out: Cell Viability (%)", "value": 88.8, "unit": "%"}, {"measurement": "viability at 4 μg/mL", "setting": "[6]; 4 μg/mL, read-out: Cell Viability (%)", "value": 88.6, "unit": "%"}, {"measurement": "viability at 8 μg/mL", "setting": "[6]; 8 μg/mL, read-out: Cell Viability (%)", "value": 82.6, "unit": "%"}, {"measurement": "viability at 16 μg/mL", "setting": "[6]; 16 μg/mL, read-out: Cell Viability (%)", "value": 78.4, "unit": "%"}, {"measurement": "viability at 32 μg/mL", "setting": "[6]; 32 μg/mL, read-out: Cell Viability (%)", "value": 71.4, "unit": "%"}, {"measurement": "viability at 64 μg/mL", "setting": "[6]; 64 μg/mL, read-out: Cell Viability (%)", "value": 58.1, "unit": "%"}, {"measurement": "viability at 128 μg/mL", "setting": "[6]; 128 μg/mL, read-out: Cell Viability (%)", "value": 19.7, "unit": "%"}, {"measurement": "ROS fluorescence intensity vs PBS-treated group", "setting": "[7]", "value": "about 8 fold"}, {"measurement": "eradication of preformed S. aureus biofilm", "setting": "[8]; 8 μg/mL", "value": "about 19.83%"}, {"measurement": "eradication of preformed S. aureus biofilm", "setting": "[8]; 1× MIC (2 μg/mL)", "value": 11.65, "unit": "%"}]}
